Two molecules from US11054425B2, “System and method for identification and characterization of transglutaminase species” (Roche Sequencing Solutions, Inc., priority 2014, dated 2021) can be followed below.

No end group written: not given here. *: point of attachment. Cbz = O=C(OCc1ccccc1)*

The test system of one assay is S. mobaraensis MTG. As to the kind of experiment: GLDH-coupled assay in solution (NADH oxidation). The conditions noted are these: enzyme MTG; glutamine-donor 0 to 1 mM, cadaverine 1 mM, 37° C. Type of assay: biochemical, Streptomyces mobaraensis. How it is done: (§1) For the GLDH coupled assay, to determine whether the KalbTG peptides selected in the array assay were also preferred substrates in a solution reaction and to quantify cross-reactivity of KalbTG and S. mobaraensis MTG with various substrates, a continuous glutamate dehydrogenase (GLDH)-coupled assay for S. mobaraensis MTG activity (see Oteng-Pabi, et al., 2013. Analytical biochemistry 441(2): 169-173) was applied.
(§2) For glutamine substrate evaluation, the assay was performed in a transparent 96-well microtiter plate in the presence of 500 μM α-ketoglutarate, 500 μM or 1 mM cadaverine as Amine donor substituting for a lysine-containing peptide, 2 U ml^−1 of glutamate dehydrogenase (GLDH), 500 μM NADH and glutamine-containing substrate peptide (Z-[[…] (SEQ ID NO:77)], Z-[[…] (SEQ ID NO:78)], Z-[[…] (SEQ ID NO:75)], Z-[[…] (SEQ ID NO:79)], Z-[[…] (SEQ ID NO:80)], Z-[[…] (SEQ ID NO:81)], Z-[[…] (SEQ ID NO:82)], Z-[[…] (SEQ ID NO:83)], Z-[[…] (SEQ ID NO:84)], Z-[[…] (SEQ ID NO:85)], Z-[[…] (SEQ ID NO:86)], Z-[[…] (SEQ ID NO:76)] or Z-[[…] (SEQ ID NO:87)]) concentrations ranging between 0 and 1 mM in 200 mM MOPS, 1 mM EDTA pH 7.2 (total volume per well 200 μl).
Reactions were started by the addition of 5 μg ml^−1 of S. mobaraensis MTG or KalbTG and the oxidation of NADH was continuously recorded at 340 nm for 60 minutes using a Biotek Synergy H4 microplate reader, temperature controlled at 37° C., with short shaking intervals before each measurement. After a short lag phase where the GLDH was saturated by transglutaminase-mediated release of ammonia, linear rates of absorbance versus time corresponding to transglutaminase turnover were observed and subjected to Michaelis-Menten kinetic analysis. Rates of absorbance in millioptical density units per minute (mOD min^−1) were converted into molar rates of NADH turnover (pmol s^−1) using the formula of Equation 1 (previously determined by an NADH standard curve): Turnover rate=|Absorbance rate|*1.111 (Eq. 1)

For assay [1], the system named is KalbTG. The assay can be described thus: GLDH-coupled assay in solution (NADH oxidation). It is filed as biochemical, Kutzneria albida. Here is the method:
KalbTG activity was obtained by measuring incorporation of a biotinylated amine-donor on the peptide array and rates of NADH oxidation at 340 nm and 37° C. in the presence of amine-donor substrate (500 μM) in the GLDH-coupled assay using 100 μM each of nine of the best-performing array-selected glutamine-containing substrates and of two S. mobaraensis MTG glutamine-containing substrates. […] Testing of the top sequences in Table 1 confirmed YRYRQ (SEQ ID NO: 1) and RYRQR (SEQ ID NO 14) as the top performing 5-mer substrates, with turnover rates of 3.52±0.08 pmol NADH s^−1 and 3.60±0.12 pmol NADH s^−1, respectively.
With reference to Table 2, KalbTG activity was obtained by measuring incorporation of a biotinylated glutamine-donor and rates of NADH oxidation at 340 nm and 37° C. in the presence of glutamine-donor substrate (200 μM) in the GLDH-coupled assay using 100 μM each of i) six of the top-performing array-selected lysine substrates, ii) cadaverine, and iii) preferred MTG lysine substrate ARSKL (SEQ ID NO:30). […] This is a small but significant increase over cadaverine (3.51±0.12 pmol s^−1) or ARSKL (SEQ ID NO:30) (3.87±0.31 pmol s^−1), a peptide previously established as a preferred MTG lysine donor motif on the peptide array. Additional details on the S. mobaraensis MTG substrate peptide ARSKL (SEQ ID NO:30) can be found in U.S. Provisional Patent Application Ser. No. 62/094,495 to Albert et al. filed on Dec. 19, 2014.
as §1, §2
For amine substrate evaluation, assay conditions were the same as for glutamine substrate evaluation with the exception that 100 μM each of amine substrate (Z-[[…] (SEQ ID NO:88)], Z-[[…] (SEQ ID NO:89)], Z-[[…] (SEQ ID NO:90)], Z-[[…] (SEQ ID NO:91)], Z-[[…] (SEQ ID NO:92)], Z-[[…] (SEQ ID NO:93)], Z-[[…] (SEQ ID NO:94)], Z-[[…] (SEQ ID NO:95)] or cadaverine) and 200 μM glutamine donor (Z-[[…] (SEQ ID NO:75)] or Z-[[…] (SEQ ID NO:76)]) were used.
Reactions were started by the addition of 5 μg ml^−1 of S. mobaraensis MTG or KalbTG and the oxidation of NADH was continuously recorded at 340 nm for 60 minutes using a Biotek Synergy H4 microplate reader, temperature controlled at 37° C., with short shaking intervals before each measurement. After a short lag phase where the GLDH was saturated by transglutaminase-mediated release of ammonia, linear rates of absorbance versus time corresponding to transglutaminase turnover were observed and subjected to Michaelis-Menten kinetic analysis. […]

Assay [2] has as its system KalbTG. The assay can be described thus: 5-mer peptide array, glutamine-substrate screening with biotinylated amine donor. It is filed as biochemical, Kutzneria albida. The conditions noted are these: incorporation of biotinylated amine-donor on 5-mer peptide array. Here is the method: To identify potential acyl-donor and amine-donor substrates of the K. albida transglutaminase, high-throughput screening on 5-mer peptide arrays was performed (FIGS. 4A and 4B). An activity of at least 1.65 U/mg for both the SlyD-fused and the mature KalbTG enzymes was confirmed by commercial assay (Zedira MTG-ANiTA-KIT; compared to 4.3 U mg^−1 by the MTG supplied with the kit and a 0.07 U/mg blank value with BSA). The assay used β-casein as a cross-linking substrate and detected deamidation by a glutamate dehydrogenase dependent oxidation of NADPH. Specific recognition motifs were identified by assaying KalbTG with peptide arrays prepared by maskless array synthesis (U.S. Pat. Pub. No 2015/0185216 to Albert et al. filed on 19 Dec. 2014). The efficiency of the transamidation reaction between 1.4 million unique 5-mer peptides and a biotinylated amine donor was quantified on two arrays in parallel and the sequences of the peptides with the highest turnovers were determined (FIG. 4A). The nine best peptides were resynthesized and tested for KalbTG activity in a standalone GLDH-coupled assay. Note that the array signal for the sequence MLAQG (SEQ ID NO:13) is marked not applicable (n. a.) as this sequence was not included on the array. Similarly, measurement of a background signal was only applicable to experiments performed on the array.
For construction of the peptide array, a library of 1,360,732 unique 5-mer peptides was designed by using all combinations of 18 natural amino acids excluding cysteine and methionine, as well as any dimer or a longer repeat of the same amino acid, and any peptide containing a dipeptide selected from HR, RH, HK, KH, RK, KR, HP, and PQ sequences. The library was synthesized in duplicate on the same array by using maskless light-directed peptide array synthesis. Each 5-mer peptide was flanked on both the N-terminus and C-terminus by 3 amino acid-long linkers synthesized by using mixture of glycine and serine having a 3:1 ratio.
To test KalbTG specificity for glutamine-containing substrate, N-(biotinyl)cadaverine was used as a substitute for a lysine substrate to biotinylate glutamine-peptides on a peptide array. KalbTG labeling reaction was performed in 1200 μL 100 mM Tris-HCl pH 8, 1 mM DTT, 50 μM N-(biotinyl)cadaverine, 0.2 ng μl^−1 KalbTG in SecureSeal™ chamber (Grace Bio-Labs) at 37° C. for 45 minutes. After incubation the chamber was removed and the array was washed in 20 mM Tris-HCl, pH7.8, 0.2 M NaCl, 1% SDS for 1 minute followed by a 1 minute wash in 20 mM Tris-HCl. Biotin linked to the array was stained with 0.3 μg ml^−1 Cy5-streptavidin in 10 mM Tris-HCl, pH7.4, 1% alkali-soluble casein, 0.05% TWEEN-20 non-ionic detergent at room temperature for 1 hour. Cy5 fluorescence intensity was measured with a fluorescence scanner at a resolution of 2 μm and a wavelength of 635 nm.

Assay [3] deals with KalbTG. The assay can be described thus: Cy3 labeling of Q-tagged SlyD/FKBP scaffold, SDS-PAGE. It is filed as biochemical, Kutzneria albida. The conditions noted are these: ten-fold excess KalbTG K-tag-Cy3, substrate to enzyme ratio 72:1, after 15 minutes. From the text:
Next, the array and in-solution data were applied to perform site-specific labeling on protein substrates. The molecular chaperone SlyD is a useful scaffold for labeling approaches as epitope-containing loops can be grafted onto the FKBP domain for presentation to binders or enzymes (PCT App. Pub. No. WO 2012/150321 A1 to Andres et al.). A chimeric protein consisting of the Thermus thermophilus FKBP domain and the KalbTG recognition sequence RYRQR (SEQ ID NO:14) was produced. Labeling with a ten-fold excess of KalbTG K-tag-Cy3 and a substrate to enzyme ratio of 72:1 afforded approximately 70% yield of a labeled protein species after 15 minutes (FIG. 6A). This yield remained constant over a time-course of 60 minutes. […] The molecular weight shift from 13 kDa to 19 kDa was observed on the SDS-PAGE gel, corresponding exactly to the incorporation of a single 6 kDa label molecule. […]
If not noted otherwise, labeling reactions were performed for 15 minutes at 37° C. in the presence of 72 μM substrate protein, 720 μM label peptide and 1 μM transglutaminase in 200 mM MOPS pH 7.2 and 1 mM EDTA. […] Samples were taken between incubation steps and analyzed by SDS-PAGE, in-gel fluorescence (BioRad ChemiDoc gel documentation system, Cy3 and Cy5 LED and filter sets). […] The mixture was filtered (0.2 μm spin filter) and analyzed by LC-MS with UV detection at 214 nm and 305 nm.

The mark [4] stands for this setting: enzyme KalbTG, glutamine-donor 0 to 1 mM, cadaverine 1 mM, 37° C.

Sequence of KalbTG (as listed by the source): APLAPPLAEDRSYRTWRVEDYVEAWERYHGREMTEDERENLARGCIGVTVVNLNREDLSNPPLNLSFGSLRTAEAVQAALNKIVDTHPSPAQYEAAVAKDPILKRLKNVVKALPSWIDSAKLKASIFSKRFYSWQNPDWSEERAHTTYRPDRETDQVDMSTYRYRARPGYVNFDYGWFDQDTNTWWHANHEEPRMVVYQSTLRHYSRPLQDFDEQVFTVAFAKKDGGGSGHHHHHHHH

The Km is the substrate concentration at which the rate is half of its maximum. By Vmax is commonly meant the rate approached at saturating substrate. With “YRYRQ (Cbz-YRYRQ) [KalbTG glutamine-donor (Q-tag) 5-mer]”, in the assay on S. mobaraensis MTG, the Km is 644 ± 58.4 µM, the maximum rate (Vmax) was 21.50 ± 1.00 pmol/s and the kcat was 0.93 S^−1. For the same molecule, the “Reaction rate in solution” value in the assay on KalbTG [1] (100 μM glutamine-containing substrate, 500 μM amine-donor substrate, NADH oxidation at 340 nm, 37° C.) amounted to 3.52 ± 0.08 pmol/s. The Michaelis-Menten constant (Km) in the assay with KalbTG [1] (enzyme KalbTG) was 2000 µM. In the assay on KalbTG [1] (setting [4]), the Km was found to be 2150 ± 291 µM, the maximum rate (Vmax) worked out at 73.18 ± 7.27 pmol/s and the kcat was determined as 1.92 S^−1. Further, the “Array signal (log2)” value in the assay with KalbTG [2] is recorded as 8.99 log2.

B1: FKBP domain RYRQR: chimeric protein of Thermus thermophilus FKBP domain and KalbTG recognition sequence RYRQR (protein)
chain: MKVGQDKVVTIRYTLQVEGEVLDQGELSYLHGHRNLIPGLEEALEGREEGEAFQAHVPAEKAYGAGSGGGGRYRQRGGGGGSSGKDLDFQVEVVKVREATPEELLHGHAHHHHHHHH
modifications: synthetic peptide sequence - KalbTG acyl-donor sequence grafted onto the FKBP domain of SlyD; FKBP_domain; acyl-donor_tag; 8xHis_tag
Consider B1, for which the “yield of labeled protein species / incorporation of label” value in the assay with KalbTG [3] was “approximately 70%”.
